Target: T1, HCV genotype 1b (BK) NS3 modified with a R155K mutation (Hepatitis C virus genotype 1b, UniProt P26663, R1181K)
T1 construct: HCV genotype 1b (BK) NS3 modified with a R155K mutation
Assay: HCV NS3 protease time-resolved fluorescence (TRF) assay, NS3 protease 1b R155K Ki activity
Type: biochemical
Conditions: HCV genotype 1b (BK) NS3 with R155K mutation; TRF peptide substrate 100 nM; Ki derived from IC50
Method: The HCV NS3 protease inhibitory activity of the present compounds may be tested using assays known in the art. One such assay is HCV NS3 protease time-resolved fluorescence (TRF) assay as described below and in International Patent Application Publication WO 2006/102087. Other examples of such assays are described in e.g., International Patent Application Publication WO 2005/046712.
A NS3 protease assay can be performed, for example, in a final volume of 100 μl assay buffer containing 50 mM HEPES, pH 7.5, 150 mM NaCl, 15% glycerol, 0.15% TRITON X-100, 10 mM DTT, and 0.1% PEG 8000. NS3 and NS4A protease is pre-incubated with various concentrations of inhibitors in DMSO for 30 minutes. The reaction is initiated by adding the TRF peptide substrate (final concentration 100 nM). NS3 mediated hydrolysis of the substrate is quenched after 1 hour at room temperature with 100 μl of 500 mM MES, pH 5.5. Product fluorescence is detected using either a VICTOR V2 or FUSION fluorophotometer (Perkin Elmer Life and Analytical Sciences) with excitation at 340 nm and emission at 615 nm with a 400 μs delay. Testing concentrations of different enzyme forms are selected to result in a signal to background ratio (S/B) of 10-30. IC50 values are derived using a standard four-parameter fit to the data. Ki values are derived from IC50 values using the following formula, IC50=Ki(1+[S]/KM), Eqn (1), where [S] is the concentration of substrate peptide in the reaction and KM is the Michaelis constant. See P. Gallinari et al., 38 BIOCHEM. 5620-32 (1999); P. Gallinari et al., 72 J. VIROL. 6758-69 (1998); M. Taliani et al., 240 ANAL. BIOCHEM. 60-67 (1996).
The HCV NS3 protease inhibitory activity was measured using the protease time-resolved fluorescence (TRF) assay as described below and in International Patent Application Publication WO 2006/102087. The assay was performed with HCV genotype 1b (BK) NS3 modified with a R155K mutation.
The assay was performed in a final volume of 100 μl in assay buffer containing 50 mM HEPES, pH 7.5, 150 mM NaCl, 15% glycerol, 0.15% TRITON X-100, 10 mM DTT, and 0.1% PEG 8000. NS3 and NS4A protease is pre-incubated with various concentrations of inhibitors in DMSO for 30 minutes. The reaction is initiated by adding the TRF peptide substrate (final concentration 100 nM). NS3 mediated hydrolysis of the substrate is quenched after 1 hour at room temperature with 100 μl of 500 mM MES, pH 5.5. Product fluorescence is detected using either a VICTOR V2 or FUSION fluorophotometer (Perkin Elmer Life and Analytical Sciences) with excitation at 340 nm and emission at 615 nm with a 400 μs delay. Testing concentrations of the enzyme containing the R155K mutation were selected to result in a signal to background ratio (S/B) of 10-30. IC50 values are derived using a standard four-parameter fit to the data. Ki values are derived from IC50 values using the following formula, IC50=Ki(1+[S]/KM), Eqn (1), where [S] is the concentration of substrate peptide in the reaction and KM is the Michaelis constant. See P. Gallinari et al., 38 BIOCHEM. 5620-32 (1999); P. Gallinari et al., 72 J. VIROL. 6758-69 (1998); M. Taliani et al., 240 ANAL. BIOCHEM. 60-67 (1996).

C=C[C@@H]1C[C@]1(NC(=O)[C@@H]1C[C@@H]2CN1C(=O)[C@H](C1CCCC1)NC(=O)O[C@@H]1CCC[C@H]1CC/C=C/Cc1c(nc3ccccn3c1=O)O2)C(=O)NS(=O)(=O)C1CC1 [(3aR,7S,10S,12R,22E,25aS)-7-cyclopentyl-N-((1R,2S)-1-{[(cyclopropylsulfonyl)amino]carbonyl}-2-vinylcyclopropyl)-5,8,20-trioxo-1,2,3,3a,5,6,7,8,11,12,21,24,25,25a-tetradecahydro-10H,20H-9,12-methanocyclopenta[r]pyrido[1′,2′:1,2]pyrimido[4,5-k][1,10,3,6]dioxadiazacyclononadecine-10-carboxamide]
Ki: < 0.1 nM

C=C[C@@H]1C[C@]1(NC(=O)[C@@H]1C[C@@H]2CN1C(=O)[C@H](C1CCCC1)NC(=O)O[C@@H]1CCC[C@H]1CC/C=C/Cn1c(nc3cc(S(C)(=O)=O)ccc3c1=O)O2)C(=O)NS(=O)(=O)C1CC1 [(3aR,7S,10S,12R,22E,25aS)-7-cyclopentyl-N-((1R,2S)-1-{[(cyclopropylsulfonyl)amino]carbonyl}-2-vinylcyclopropyl)-16-(methylsulfonyl)-5,8,19-trioxo-1,2,3,3a,5,6,7,8,11,12,21,24,25,25a-tetradecahydro-10H,19H-9,12-methanocyclopenta[18,19][1,10,3,6,12]dioxatriazacyclononadecino[11,12-b]quinazoline-10-carboxamide]
Ki: < 0.1 nM

C=C[C@@H]1C[C@]1(NC(=O)[C@@H]1C[C@@H]2CN1C(=O)[C@H](C1CCCC1)NC(=O)O[C@@H]1CCC[C@H]1CC/C=C/Cn1c(nc3cc(OC)ccc3c1=O)O2)C(=O)NS(=O)(=O)C1CC1 [(3aR,7S,10S,12R,22E,25aS)-7-cyclopentyl-N-((1R,2S)-1-{[(cyclopropylsulfonyl)amino]carbonyl}-2-vinylcyclopropyl)-16-methoxy-5,8,19-trioxo-1,2,3,3a,5,6,7,8,11,12,21,24,25,25a-tetradecahydro-10H,19H-9,12-methanocyclopenta[18,19][1,10,3,6,12]dioxatriazacyclononadecino[11,12-b]quinazoline-10-carboxamide]
Ki: < 0.1 nM

C=C[C@@H]1C[C@]1(NC(=O)[C@@H]1C[C@@H]2CN1C(=O)[C@H](C1CCCC1)NC(=O)O[C@@H]1CCC[C@H]1CC/C=C/Cn1c(nc3cccc(OC)c3c1=O)O2)C(=O)NS(=O)(=O)C1CC1 [(3aR,7S,10S,12R,22E,25aS)-7-cyclopentyl-N-((1R,2S)-1-{[(cyclopropylsulfonyl)amino]carbonyl}-2-vinylcyclopropyl)-18-methoxy-5,8,19-trioxo-1,2,3,3a,5,6,7,8,11,12,21,24,25,25a-tetradecahydro-10H,19H-9,12-methanocyclopenta[18,19][1,10,3,6,12]dioxatriazacyclononadecino[11,12-b]quinazoline-10-carboxamide]
Ki: < 0.1 nM

CC[C@@H]1C[C@]1(NC(=O)[C@@H]1C[C@@H]2CN1C(=O)[C@H](C1CCCC1)NC(=O)O[C@@H]1CCC[C@H]1CC/C=C/Cn1c(nc3cc(Br)ccc3c1=O)O2)C(=O)NS(=O)(=O)C1CC1 [(3aR,7S,10S,12R,22E,25aS)-16-bromo-7-cyclopentyl-N-((1R,2R)-1-{[(cyclopropylsulfonyl)amino]carbonyl}-2-ethylcyclopropyl)-5,8,19-trioxo-1,2,3,3a,5,6,7,8,11,12,21,24,25,25a-tetradecahydro-10H,19H-9,12-methanocyclopenta[18,19][1,10,3,6,12]dioxatriazacyclononadecino[11,12-b]quinazoline-10-carboxamide]
Ki: 0.1 to 0.5 nM

CC[C@@H]1C[C@]1(NC(=O)[C@@H]1C[C@@H]2CN1C(=O)[C@H](C1CCCC1)NC(=O)O[C@@H]1CCC[C@H]1CC/C=C/Cn1c(nc3cc(Cl)ccc3c1=O)O2)C(=O)NS(=O)(=O)C1CC1 [(3aR,7S,10S,12R,22E,25aS)-16-chloro-7-cyclopentyl-N-((1R,2R)-1-{[(cyclopropylsulfonyl)amino]carbonyl}-2-ethylcyclopropyl)-5,8,19-trioxo-1,2,3,3a,5,6,7,8,11,12,21,24,25,25a-tetradecahydro-10H,19H-9,12-methanocyclopenta[18,19][1,10,3,6,12]dioxatriazacyclononadecino[11,12-b]quinazoline-10-carboxamide]
Ki: 0.1 to 0.5 nM

C=C[C@@H]1C[C@]1(NC(=O)[C@@H]1C[C@@H]2CN1C(=O)[C@H](C1CCCC1)NC(=O)O[C@@H]1CCC[C@H]1CC/C=C/Cn1c(nc3cc(Cl)ccc3c1=O)O2)C(=O)NS(=O)(=O)C1CC1 [(3aR,7S,10S,12R,22E,25aS)-16-chloro-7-cyclopentyl-N-((1R,2S)-1-{[(cyclopropylsulfonyl)amino]carbonyl}-2-vinylcyclopropyl)-5,8,19-trioxo-1,2,3,3a,5,6,7,8,11,12,21,24,25,25a-tetradecahydro-10H,19H-9,12-methanocyclopenta[18,19][1,10,3,6,12]dioxatriazacyclononadecino[11,12-b]quinazoline-10-carboxamide]
Ki: < 0.1 nM

CC[C@@H]1C[C@]1(NC(=O)[C@@H]1C[C@@H]2CN1C(=O)[C@H](C1CCCC1)NC(=O)O[C@@H]1CCC[C@H]1CC/C=C/Cn1c(nc3cc(C#N)ccc3c1=O)O2)C(=O)NS(=O)(=O)C1CC1 [(3aR,7S,10S,12R,22E,25aS)-16-cyano-7-cyclopentyl-N-((1R,2R)-1-{[(cyclopropylsulfonyl)amino]carbonyl}-2-ethylcyclopropyl)-5,8,19-trioxo-1,2,3,3a,5,6,7,8,11,12,21,24,25,25a-tetradecahydro-10H,19H-9,12-methanocyclopenta[18,19][1,10,3,6,12]dioxatriazacyclononadecino[11,12-b]quinazoline-10-carboxamide]
Ki: 0.1 to 0.5 nM

C=C[C@@H]1C[C@]1(NC(=O)[C@@H]1C[C@@H]2CN1C(=O)[C@H](C1CCCC1)NC(=O)O[C@@H]1CCC[C@H]1CCC/C=C/Cn1c(cc3ccccc3c1=O)O2)C(=O)NS(=O)(=O)C1CC1 [(3aR,7S,10S,12R,22E,26aR)-7-cyclopentyl-N-((1R,2S)-1-{[(cyclopropylsulfonyl)amino]carbonyl}-2-vinylcyclopropyl)-5,8,19-trioxo-2,3,3a,5,6,7,8,11,12,21,24,25,26,26a-tetradecahydro-1H,10H,19H-9,12-methanocyclopenta[19,20][1,10,3,6,12]dioxatriazacycloicosino[12,11-b]isoquinoline-10-carboxamide]
Ki: 0.1 to 0.5 nM

C=C[C@@H]1C[C@]1(NC(=O)[C@@H]1C[C@@H]2CN1C(=O)[C@H](C1CCCC1)NC(=O)O[C@@H]1CCC[C@H]1C/C=C/CCn1c(cc3cc(OC)ccc3c1=O)O2)C(=O)NS(=O)(=O)C1CC1 [(3aR,7S,10S,12R,23E,25aS)-7-cyclopentyl-N-((1R,2S)-1-{[(cyclopropylsulfonyl)amino]carbonyl}-2-vinylcyclopropyl)-16-methoxy-5,8,19-trioxo-1,2,3,3a,5,6,7,8,11,12,21,22,25,25a-tetradecahydro-10H,19H-9,12-methanocyclopenta[18,19][1,10,3,6,12]dioxatriazacyclononadecino[12,11-b]isoquinoline-10-carboxamide]
Ki: < 0.1 nM

C=C[C@@H]1C[C@]1(NC(=O)[C@@H]1C[C@@H]2CN1C(=O)[C@H](C1CCCC1)NC(=O)O[C@@H]1CCC[C@H]1C/C=C/CCn1c(cc3ccc(F)cc3c1=O)O2)C(=O)NS(=O)(=O)C1CC1 [(3aR,7S,10S,12R,23E,25aS)-7-cyclopentyl-N-((1R,2S)-1-{[(cyclopropylsulfonyl)amino]carbonyl}-2-vinylcyclopropyl)-17-fluoro-5,8,19-trioxo-1,2,3,3a,5,6,7,8,11,12,21,22,25,25a-tetradecahydro-10H,19H-9,12-methanocyclopenta[18,19][1,10,3,6,12]dioxatriazacyclononadecino[12,11-b]isoquinoline-10-carboxamide]
Ki: 0.1 to 0.5 nM

Reference: patent US8461107B2 (Merck Sharp & Dohme Corp., priority 2008, dated 2013)
